Laboratory results: PubChem BioAssay (NCI)
Several values for one entry are separate records, joined by “and”; a condition that tells them apart may be missing. Identical values can stand only once.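 Each compound was tested at five concentrations against cells in 96-well plates for 48 hours. TGI: total growth inhibition.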

How the values were obtained:
Assay in all cases: NCI tumour cell line growth inhibition, 48 h
PC-3 prostate = test system: PC-3 prostate
RXF 393 renal = test system: RXF 393 renal
MDA-N = test system: MDA-N
LOX IMVI melanoma = test system: LOX IMVI melanoma
HCC-2998 colon = test system: HCC-2998 colon
UO-31 renal = test system: UO-31 renal
HOP-92 NSCLC = test system: HOP-92 NSCLC
TK-10 renal = test system: TK-10 renal
SNB-19 CNS = test system: SNB-19 CNS
CAKI-1 renal = test system: CAKI-1 renal

Row | SMILES | TGI (PC-3 prostate) | TGI (RXF 393 renal) | TGI (MDA-N) | TGI (LOX IMVI melanoma) | TGI (HCC-2998 colon) | TGI (UO-31 renal) | TGI (HOP-92 NSCLC) | TGI (TK-10 renal) | TGI (SNB-19 CNS) | TGI (CAKI-1 renal)
1 | Cc1nc(Cc2n[nH]c(C)n2)n[nH]1 | > 100 µM | > 100 µM | > 100 µM | > 100 µM | > 100 µM | > 100 µM | > 100 µM | > 100 µM | > 100 µM | 
2 | Clc1ccc(C2=NCON=C2c2ccc(Cl)cc2)cc1 | 68.2 µM | 44.8 µM | 56.5 µM | 28.3 µM | 32.7 µM | 40.7 µM | 43.5 µM | 66.3 µM | > 100 µM | 97.8 µM
3 | COc1ccc(N=Nc2c(N)nn3c(SC)c(C#N)c(N)nc23)cc1 | 21.5 µM | 19.5 µM | 26.7 µM | 3.12 µM | 16.7 µM | 25.4 µM | 27.6 µM | 33.6 µM | 37.6 µM | 23.5 µM
4 | CCC(=C/[C@H](C)C/C=C/C(C)=C/[C@@H](C)C(=O)[C@@H](C)[C@H](O)[C@@H](C)CC)/C=C/[C@H]1CC=CC(=O)O1 | 1.45 µM and 11.5 µM | < 0.0012 µM | 0.00339 µM | 1.22 µM | < 0.0012 µM |  | 4.26 µM | 1.91 µM and 14.3 µM | 2.11 µM and 14 µM | 2.88 µM
5 | C=CCNC1=C2C[C@@H](C)C[C@@H](OC)[C@H](OC(=O)CCN(C)C)[C@H](C)/C=C(\C)[C@@H](OC(N)=O)[C@H](OC)/C=C\C=C(/C)C(=O)NC(=CC1=O)C2=O | 14.3 µM | 11.7 µM | 14.3 µM | 11.2 µM | 0.752 µM | 27.1 µM | 29.2 µM | 17.3 µM | 23.1 µM | 45 µM
6 | CCC1CN2CCc3c([nH]c4ccccc34)[C@@](C(=O)OC)(c3cc4c(cc3OC)N(C)C3C(O)(C(=O)OC)C(C(=O)OC)C5(CC)C=CCN6CCC43C65)C[C@@H](C2)[C@@H]1C(C)(C)C (stereo partly drawn) | 3.26 µM | > 10 µM | 0.424 µM | 2 µM | 1.52 µM | > 6.12 µM | 8.19 µM | > 10 µM | > 2.53 µM | > 10 µM
7 | CCOC(=O)c1cc2c3c(cc(OC)c2[nH]1)N(C(=O)OCC)CC3 | > 100 µM | > 100 µM | > 100 µM | > 100 µM | > 100 µM | > 100 µM | > 100 µM |  | > 100 µM | > 100 µM
8 | COc1cc2c(cc1OC)C(=O)N(c1ccc(OCCN3CCCC3)cc1)C2=O | > 100 µM | > 100 µM | > 100 µM | > 100 µM | > 100 µM |  | > 100 µM | > 100 µM | > 100 µM | > 100 µM
9 | CCOC(=O)c1csc(NC(=O)C(C)N2CCOCC2)n1 (stereo not drawn) | > 100 µM | > 100 µM | > 100 µM | > 100 µM | > 100 µM | > 100 µM | > 100 µM | > 100 µM | > 100 µM | > 100 µM
10 | O=C(NCc1ccccc1Cl)c1c(O)c2ccccc2[nH]c1=O | > 100 µM | 63.1 µM | > 100 µM | > 100 µM | > 100 µM | 33.4 µM | 58.7 µM | > 100 µM | > 100 µM | 96.6 µM
11 | Cc1ccc(NCCN(C)C)c2c(=O)c3cc(O)ccc3sc12 | 11.1 µM | 4.8 µM | 4.58 µM | 7.84 µM | 10.4 µM | 17.4 µM | 14.4 µM | 33.9 µM | 16.1 µM | 11.6 µM
12 | COc1cc2c(cc1OC)C(=O)/C(=C/c1ccc(N(C)C)cc1)CC2 | > 10 µM | > 10 µM | > 10 µM | > 10 µM | > 10 µM | > 10 µM | > 10 µM | > 10 µM | > 10 µM | > 10 µM
13 | CC(C)[C@@H]1NC(=O)[C@@H]2N=C(O[C@H]2C)[C@H](C(C)C)NC(=O)C2N=C1O[C@H]2C | > 100 µM | > 100 µM | > 100 µM | > 100 µM | > 100 µM | > 100 µM | > 100 µM | > 100 µM | > 100 µM | > 100 µM
14 | COC1OC(C(=O)O)C2OC(C)(C)OC12 (stereo not drawn) | > 100 µM | > 100 µM | > 100 µM | > 100 µM | > 100 µM | > 100 µM | > 100 µM | > 100 µM | > 100 µM | > 100 µM
15 | Cc1cc2occ(S(=O)(=O)NC(=O)Nc3ccc(Cl)cc3)c(=O)c2c(=O)o1 | > 100 µM | > 100 µM | > 100 µM | > 100 µM | > 100 µM | > 100 µM | > 100 µM | > 100 µM | > 100 µM | > 100 µM
16 | O=C1C=C/C(=C/[C@H]2SSC=C[C@]23C=CC(=O)C3)C1 | > 84.9 µM | 29.9 µM | 51.3 µM | > 48.7 µM | 44.7 µM | 32.5 µM | 61.5 µM | > 64.7 µM | > 100 µM | 24.8 µM
17 | Cc1ccc(-n2cc(-c3ccc(Cl)cc3)c3c(=N)n(N)cnc32)cc1 | 19.4 µM | 15.7 µM | 23.8 µM | 29.8 µM | 19.2 µM | 24 µM | 21.6 µM | 28.7 µM | 24.4 µM | 34.3 µM

Row | SMILES | TGI (PC-3 prostate) | TGI (RXF 393 renal) | TGI (MDA-N) | TGI (LOX IMVI melanoma) | TGI (HCC-2998 colon) | TGI (UO-31 renal) | TGI (HOP-92 NSCLC) | TGI (TK-10 renal) | TGI (SNB-19 CNS) | TGI (CAKI-1 renal)
18 | O=C1C2CC[C@@H]3C(=O)C(Cl)(Cl)[C@@H]3CCC2C1(Cl)Cl (stereo partly drawn) | > 100 µM | > 100 µM | > 100 µM | > 100 µM | > 100 µM | > 100 µM | > 100 µM | > 100 µM | > 100 µM | > 100 µM
19 | CC(NNC(=O)c1ccncc1)c1ccc(Cl)cc1Cl (stereo not drawn) | > 100 µM | > 100 µM | > 100 µM | > 100 µM | > 100 µM | > 100 µM | > 100 µM | > 100 µM | > 100 µM | > 100 µM
20 | COc1cc(/C=C2/Oc3c(OC)cccc3C2=O)ccc1O | > 100 µM | > 100 µM | > 100 µM | > 100 µM | > 100 µM | > 100 µM | > 100 µM | > 100 µM | > 100 µM | > 100 µM
21 | N#CC(NNC(=O)c1ccccc1O)c1c(O)ccc2ccccc12 (stereo not drawn) | > 55.1 µM | 29.9 µM | > 63.2 µM | 6.64 µM | > 100 µM | 11.4 µM | 40.7 µM | 36.5 µM | > 100 µM | 21 µM
22 | Cc1cc(C)nc(NS(=O)(=O)c2ccc(Nc3c4ccccc4nc4ccc(C(=O)Nc5ccc(S(=O)(=O)N=C(N)N)cc5)cc34)cc2)n1 | > 100 µM | > 100 µM | > 100 µM | 34.4 µM | > 100 µM | > 100 µM | > 100 µM | > 100 µM | > 100 µM | > 100 µM
23 | COc1ccc2c(c1)CC[C@@H]1C2CC[C@]2(C)C(=C=CP(=O)(O)O)CCC12 (stereo partly drawn) | > 100 µM | > 100 µM | > 100 µM | > 100 µM | > 100 µM |  | > 100 µM | > 100 µM | > 100 µM | > 100 µM
24 | CSc1nc(C)c2c(n1)N(c1ccc(Cl)cc1)CC2 | > 100 µM | > 100 µM | > 100 µM | > 100 µM | > 100 µM |  | > 100 µM | > 100 µM | > 100 µM | > 100 µM
25 | O=c1c2cc(I)ccc2nc(-c2cccs2)n1O | > 100 µM | > 100 µM | > 100 µM | 80.4 µM | > 100 µM | > 100 µM | 79.6 µM | 79.4 µM | 72 µM | 98.4 µM
26 | CC(=O)C(C(C)=O)[C@H]1OC(C)(C)O[C@H]1[C@H]1COC(C)(C)O1 | 68.9 µM | > 100 µM | > 100 µM | > 100 µM | 86 µM | > 100 µM | > 100 µM | > 100 µM | > 100 µM | > 100 µM
27 | S=c1[nH]n2c(COc3cc(Cl)c(OCc4nnc5sc(=S)[nH]n45)cc3Cl)nnc2s1 | > 100 µM | > 100 µM | > 100 µM | > 100 µM | > 100 µM | 86.4 µM | > 100 µM | > 100 µM | > 100 µM | > 100 µM
28 | O=C1c2ccccc2C(=O)c2sc(Nc3cc(Cl)ccc3Cl)nc21 | 18.5 µM | 39.3 µM | 3.41 µM | 5.78 µM | 20.7 µM | 19.4 µM | 36.2 µM | 29.4 µM | 37.9 µM | 11.7 µM
29 | c1ccc(-c2c(-c3[nH]c4ccccc4c3-c3ccccc3)[nH]c3ccccc23)cc1 | 10.6 µM | 3.72 µM | 7.46 µM | 4.06 µM | 3.94 µM | 12.7 µM | 12.2 µM | 22.4 µM | 19.3 µM | 13.8 µM
30 | COC(=O)[C@@H]1COC(=O)N1 | > 100 µM | > 100 µM | > 100 µM | > 100 µM | > 100 µM | > 100 µM | > 100 µM | > 100 µM | > 100 µM | > 100 µM
31 | CCc1cc2c(c3c1CCCC3=O)CC1(C2)Cc2cc(CC)c3c(c2C1)C(=O)CCC3 | > 100 µM | > 100 µM | > 100 µM | > 100 µM | > 100 µM | > 100 µM | > 100 µM | > 100 µM | > 100 µM | > 100 µM
32 | COc1ccc(CC[N+]2(C)COc3cc4oc(=O)cc(C)c4cc3C2)cc1OC (stereo not drawn) | > 100 µM | > 100 µM | > 100 µM | > 100 µM | > 100 µM | > 100 µM | > 100 µM | > 100 µM | > 100 µM | > 100 µM
33 | C=CCOC(=O)N1c2ccc(O)cc2[C@@]23O[C@@]24[C@@H]1C#C/C=C\C#C[C@]3(O)C(=O)C[C@@H]4C | > 100 µM | > 100 µM | > 100 µM |  | > 100 µM | > 100 µM | > 100 µM | > 100 µM | > 100 µM | > 100 µM
34 | CC(=O)O[C@H]1C(=O)[C@@]2(C)[C@H]([C@H](OC(=O)c3ccco3)[C@]3(O)C[C@H](OC(=O)[C@H](O)[C@@H](NC(=O)c4ccccc4)c4ccccc4)C(C)=C1C3(C)C)[C@]1(OC(C)=O)CO[C@@H]1C[C@@H]2O | > 23.5 µM | 3.76 µM | 0.0602 µM | > 25 µM | 20 µM | > 25 µM | > 25 µM | > 25 µM | > 25 µM | > 25 µM
